Among the test systems are OVCAR-8 ovarian; SK-MEL-5 melanoma; ACHN renal; KM12 colon; MDA-MB-231 breast; OVCAR-4 ovarian; UACC-62 melanoma; U251 CNS; K-562 leukemia; 786-0 renal.
What all share (experiment): NCI anticancer screen, dose series, 48 h

This note sets out measurements from PubChem BioAssay (NCI).

Each structure is given as a SMILES string.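 Values below derive from 48-hour exposures of cells grown in 96-well plates, with endpoints linearly interpolated between the two concentrations bracketing the appropriate inhibition level. GI50 = concentration required for 50% inhibition of growth. The concentration for full growth arrest is given as TGI.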

`COc1ccc(/C=C\c2cc(OC)c(OC)c(OC)c2)cc1OCC(=O)Nc1nc2ccc(F)cc2s1`: the GI50 in the experiment with OVCAR-8 ovarian is 7.15 µM; in the experiment with SK-MEL-5 melanoma, 1.76 µM; in the experiment on ACHN renal, 3.33 µM; with KM12 colon it was 4.78 µM; in the experiment on MDA-MB-231 breast, 9.34 µM; with OVCAR-4 ovarian it was 7.3 µM. Moreover, the GI50 in the experiment on UACC-62 melanoma is 4.05 µM; with U251 CNS it was 4.33 µM; in the experiment on K-562 leukemia, 3.62 µM; in the experiment with 786-0 renal it was 7.12 µM. Moreover, the TGI in the experiment on OVCAR-8 ovarian is > 100 µM; in the experiment with SK-MEL-5 melanoma, 8.96 µM; with ACHN renal it was > 100 µM; in the experiment with KM12 colon, > 100 µM; in the experiment with MDA-MB-231 breast, > 100 µM; with OVCAR-4 ovarian, > 100 µM. Further, the TGI in the experiment with UACC-62 melanoma, in the experiment with U251 CNS, with K-562 leukemia and with 786-0 renal was > 100 µM each time.
Take `CCc1ccc(Oc2c(-c3ccc(OCc4ccc(Cl)cc4)cc3O)n[nH]c2C(F)(F)F)cc1`: the GI50 was 2.52 µM with OVCAR-8 ovarian; 1.66 µM with SK-MEL-5 melanoma; 1.89 µM in the experiment with ACHN renal; 1.77 µM in the experiment with KM12 colon; 1.91 µM with MDA-MB-231 breast; 1.62 µM in the experiment on OVCAR-4 ovarian. The GI50 with UACC-62 melanoma was 1.8 µM; with U251 CNS, 1.79 µM; in the experiment with K-562 leukemia, 2.32 µM; with 786-0 renal it was 1.72 µM. Moreover, the TGI in the experiment on OVCAR-8 ovarian was determined as 5.87 µM; in the experiment on SK-MEL-5 melanoma, 3.03 µM; in the experiment with ACHN renal, 4 µM; with KM12 colon, 3.35 µM; with MDA-MB-231 breast it was 3.96 µM; in the experiment with OVCAR-4 ovarian, 3.31 µM. The TGI in the experiment on UACC-62 melanoma came to 4.81 µM; in the experiment on U251 CNS it was 3.22 µM; with K-562 leukemia, 5.37 µM; in the experiment with 786-0 renal, 3.27 µM.
With `CC(C)C[C@H](NC(=O)CNC(=O)c1cc(Cl)ccc1Cl)B(O)O`, the GI50 in the experiment with OVCAR-8 ovarian was 0.0659 µM; with SK-MEL-5 melanoma, < 0.0136 µM; with ACHN renal, < 0.0182 µM; in the experiment on KM12 colon, 0.0295 µM; in the experiment on MDA-MB-231 breast it was 0.0302 µM; with OVCAR-4 ovarian it was 0.061 µM. In addition, the GI50 in the experiment with UACC-62 melanoma is < 0.0175 µM; in the experiment with U251 CNS, 0.0504 µM; in the experiment on K-562 leukemia it was 0.03 µM; in the experiment with 786-0 renal, 0.0278 µM. Also, the TGI with OVCAR-8 ovarian came out at 15.3 µM; in the experiment with SK-MEL-5 melanoma it was 0.0305 µM; in the experiment on ACHN renal it was 15.8 µM; in the experiment on KM12 colon, 0.101 µM; in the experiment on MDA-MB-231 breast, 0.14 µM; in the experiment with OVCAR-4 ovarian it was 5.45 µM. Further, the TGI in the experiment with UACC-62 melanoma was found to be 0.0457 µM; in the experiment with U251 CNS, 2.81 µM; with K-562 leukemia it was 1.21 µM; in the experiment on 786-0 renal it was 0.814 µM.
